Legend:
[1] = test system: N-acetyl-β-D-glucosaminidase; assay: Glycosidase inhibition: N-acetyl-β-D-glucosaminidase; format: biochemical, Bovine kidney; conditions: 1 mg/ml; pH 4.25, 20° C
Procedure: (§1) Inhibition of the N-linked glycan trimming enzymes alpha-Glucosidases I and II or alpha-Mannosidases I and II are thought to be related to the anti-viral activity of castanospermine (Compound 104) and 1-deoxynojirimycin (Compound 193). […] All enzymes were purchased from Sigma, as were the appropriate p-nitrophenyl substrates. Assays were carried out in microtitre plates. Enzymes were assayed in 0.1M citric acid/0.2M di-sodium hydrogen phosphate (McIlvaine) buffers at the optimum pH for the enzyme. All assays were carried out at 20° C. For screening assays the incubation assay consisted of 10 μl of enzyme solution, 10 μl of inhibitor solution (made up in water at 5 mM) and 50 μl of the appropriate 5 mM p-nitrophenyl substrate (3.57 mM final conc.) made up in McIlvaine buffer at the optimum pH for the enzyme.
(§2) The reactions were stopped with 0.4M glycine (pH 10.4) during the exponential phase of the reaction, which was determined at the beginning of the assay using blanks with water, which were incubated for a range of time periods to measure the reaction rate using 5 mM substrate solution. Endpoint absorbances were read at 405 nm with a Bio-rad microtitre plate reader (Benchmark). Water was substituted for the inhibitors in the blanks.

α-L-fucosidase = target: T1, α-L-fucosidase (Bos taurus, UniProt Q2KIM0); assay: Glycosidase inhibition: α-L-fucosidase; format: biochemical, Bovine kidney; conditions: 1 mg/ml; pH 5.5, 20° C
T1 construct: purchased Sigma; host or cells: bovine kidney
T1 sequence (Q2KIM0 23-468): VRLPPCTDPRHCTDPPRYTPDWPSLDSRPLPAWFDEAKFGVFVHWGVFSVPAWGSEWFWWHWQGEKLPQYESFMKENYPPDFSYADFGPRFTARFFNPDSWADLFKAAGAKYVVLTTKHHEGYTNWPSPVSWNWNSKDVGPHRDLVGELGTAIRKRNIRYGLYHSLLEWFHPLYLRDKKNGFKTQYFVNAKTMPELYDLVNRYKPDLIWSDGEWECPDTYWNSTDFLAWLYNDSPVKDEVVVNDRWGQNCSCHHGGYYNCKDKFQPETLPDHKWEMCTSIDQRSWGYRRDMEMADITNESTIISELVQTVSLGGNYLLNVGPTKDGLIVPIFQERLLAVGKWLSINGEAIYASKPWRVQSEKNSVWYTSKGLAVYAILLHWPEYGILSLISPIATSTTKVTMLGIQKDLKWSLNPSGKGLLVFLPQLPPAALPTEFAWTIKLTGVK
Procedure: All enzymes were purchased from Sigma, as were the appropriate p-nitrophenyl substrates. Assays were carried out in microtitre plates. Enzymes were assayed in 0.1M citric acid/0.2M di-sodium hydrogen phosphate (McIlvaine) buffers at the optimum pH for the enzyme. All assays were carried out at 20° C. For screening assays the incubation assay consisted of 10 μl of enzyme solution, 10 μl of inhibitor solution (made up in water at 5 mM) and 50 μl of the appropriate 5 mM p-nitrophenyl substrate (3.57 mM final conc.) made up in McIlvaine buffer at the optimum pH for the enzyme.
as §2

Naringinase = assay: Glycosidase inhibition: Naringinase; format: biochemical, Penecillium decumbens; conditions: 1 mg/ml; pH 4.0, 20° C
Procedure: as §1, §2

α-D-mannosidase = target: T2, α-D-mannosidase (Canavalia ensiformis, UniProt C0HJB3); assay: Glycosidase inhibition: α-D-mannosidase; format: biochemical, Jack beans (Canavalia ensiformis); conditions: 1 mg/ml; pH 4.5, 20° C
T2 construct: purchased Sigma
T2 sequence (C0HJB3 1-981): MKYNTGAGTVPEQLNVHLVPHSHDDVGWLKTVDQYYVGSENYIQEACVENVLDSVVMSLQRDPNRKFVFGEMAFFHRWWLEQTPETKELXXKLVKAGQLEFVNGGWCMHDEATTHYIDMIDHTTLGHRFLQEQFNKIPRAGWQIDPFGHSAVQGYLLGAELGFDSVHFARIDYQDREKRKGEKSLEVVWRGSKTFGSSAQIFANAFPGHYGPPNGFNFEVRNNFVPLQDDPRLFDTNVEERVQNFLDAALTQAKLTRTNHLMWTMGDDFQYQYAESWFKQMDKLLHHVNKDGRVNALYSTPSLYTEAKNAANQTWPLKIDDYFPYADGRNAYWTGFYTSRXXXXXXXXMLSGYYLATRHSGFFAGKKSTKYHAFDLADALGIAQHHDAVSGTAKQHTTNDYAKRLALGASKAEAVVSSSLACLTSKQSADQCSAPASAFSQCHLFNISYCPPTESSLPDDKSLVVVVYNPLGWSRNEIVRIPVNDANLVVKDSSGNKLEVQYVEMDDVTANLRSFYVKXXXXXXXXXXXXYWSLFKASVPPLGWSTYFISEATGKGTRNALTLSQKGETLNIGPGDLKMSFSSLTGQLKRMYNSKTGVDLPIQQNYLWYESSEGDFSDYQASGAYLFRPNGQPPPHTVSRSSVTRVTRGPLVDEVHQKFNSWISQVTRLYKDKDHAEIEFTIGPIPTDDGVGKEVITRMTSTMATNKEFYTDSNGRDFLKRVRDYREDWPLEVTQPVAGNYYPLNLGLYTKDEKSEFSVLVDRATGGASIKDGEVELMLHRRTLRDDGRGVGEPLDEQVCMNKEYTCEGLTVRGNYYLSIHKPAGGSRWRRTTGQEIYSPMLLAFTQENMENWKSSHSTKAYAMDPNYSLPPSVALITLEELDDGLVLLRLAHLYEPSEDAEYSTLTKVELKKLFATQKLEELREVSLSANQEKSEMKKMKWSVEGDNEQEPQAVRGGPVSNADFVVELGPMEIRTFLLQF
Procedure: as §1, §2

α-D-glucosidase [2] = target: T3, α-D-glucosidase (Saccharomyces cerevisiae, UniProt P53341); assay: Glycosidase inhibition: α-D-glucosidase (yeast); format: biochemical, Saccharomyces cerevisiae (Baker's yeast); conditions: 1 mg/ml; pH 6.0, 20° C
T3 construct: purchased Sigma
Procedure: as §1, §2

α-D-galactosidase = target: T4, α-D-galactosidase (Coffea arabica, UniProt Q42656); assay: Glycosidase inhibition: α-D-galactosidase; format: biochemical, Green coffee beans (Coffea sp.); conditions: 1 mg/ml; pH 6.5, 20° C
T4 construct: purchased Sigma
Procedure: as §1, §2

α-D-glucosidase [3] = target: T5, α-D-glucosidase (Oryza sativa subsp. japonica, UniProt Q653V7); assay: Glycosidase inhibition: α-D-glucosidase (rice); format: biochemical, rice (Oryza sativa); conditions: 1 mg/ml; pH 6.0, 20° C
T5 construct: purchased Sigma
Procedure: as §1, §2

α-D-glucosidase [4] = assay: Glycosidase inhibition: α-D-glucosidase (Bacillus); format: biochemical, Bacillus stearothermophilus; conditions: 1 mg/ml; pH 6.0, 20° C
Procedure: as §1, §2

β-D-glucosidase = assay: Glycosidase inhibition: β-D-glucosidase; format: biochemical, Almonds (Prunus sp.); conditions: 1 mg/ml; pH 5.0, 20° C
Procedure: as §1, §2

β-D-galactosidase = assay: Glycosidase inhibition: β-D-galactosidase; format: biochemical, Bovine liver; conditions: 1 mg/ml; pH 7.3, 20° C
Procedure: as §1, §2

HCV = assay: Cell-based HCV infection NS3 protease FRET assay in DMSO-Huh7 cells; parameters: species or system hepatitis C virus (HCV); conditions: DMSO-Huh7 cells infected with HCV at 0.05 ffu/cell; HCV NS3 protein levels by FRET, day 6 p.i.

T3 sequence (P53341 whole entry): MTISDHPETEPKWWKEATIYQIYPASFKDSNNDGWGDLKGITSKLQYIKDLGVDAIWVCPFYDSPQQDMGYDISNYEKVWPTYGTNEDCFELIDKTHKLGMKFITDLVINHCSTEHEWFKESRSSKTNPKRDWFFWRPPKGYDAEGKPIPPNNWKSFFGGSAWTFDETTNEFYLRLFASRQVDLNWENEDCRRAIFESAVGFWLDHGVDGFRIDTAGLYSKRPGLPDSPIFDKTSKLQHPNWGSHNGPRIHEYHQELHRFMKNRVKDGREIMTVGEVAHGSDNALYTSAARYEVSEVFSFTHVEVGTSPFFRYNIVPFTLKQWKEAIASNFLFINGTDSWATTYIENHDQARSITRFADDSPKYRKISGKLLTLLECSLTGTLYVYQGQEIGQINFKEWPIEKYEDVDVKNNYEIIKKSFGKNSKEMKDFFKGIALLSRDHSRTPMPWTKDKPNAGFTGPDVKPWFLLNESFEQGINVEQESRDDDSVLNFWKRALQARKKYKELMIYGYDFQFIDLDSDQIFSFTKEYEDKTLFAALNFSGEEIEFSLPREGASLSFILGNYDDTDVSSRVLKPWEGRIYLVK
T5 sequence (Q653V7 34-885): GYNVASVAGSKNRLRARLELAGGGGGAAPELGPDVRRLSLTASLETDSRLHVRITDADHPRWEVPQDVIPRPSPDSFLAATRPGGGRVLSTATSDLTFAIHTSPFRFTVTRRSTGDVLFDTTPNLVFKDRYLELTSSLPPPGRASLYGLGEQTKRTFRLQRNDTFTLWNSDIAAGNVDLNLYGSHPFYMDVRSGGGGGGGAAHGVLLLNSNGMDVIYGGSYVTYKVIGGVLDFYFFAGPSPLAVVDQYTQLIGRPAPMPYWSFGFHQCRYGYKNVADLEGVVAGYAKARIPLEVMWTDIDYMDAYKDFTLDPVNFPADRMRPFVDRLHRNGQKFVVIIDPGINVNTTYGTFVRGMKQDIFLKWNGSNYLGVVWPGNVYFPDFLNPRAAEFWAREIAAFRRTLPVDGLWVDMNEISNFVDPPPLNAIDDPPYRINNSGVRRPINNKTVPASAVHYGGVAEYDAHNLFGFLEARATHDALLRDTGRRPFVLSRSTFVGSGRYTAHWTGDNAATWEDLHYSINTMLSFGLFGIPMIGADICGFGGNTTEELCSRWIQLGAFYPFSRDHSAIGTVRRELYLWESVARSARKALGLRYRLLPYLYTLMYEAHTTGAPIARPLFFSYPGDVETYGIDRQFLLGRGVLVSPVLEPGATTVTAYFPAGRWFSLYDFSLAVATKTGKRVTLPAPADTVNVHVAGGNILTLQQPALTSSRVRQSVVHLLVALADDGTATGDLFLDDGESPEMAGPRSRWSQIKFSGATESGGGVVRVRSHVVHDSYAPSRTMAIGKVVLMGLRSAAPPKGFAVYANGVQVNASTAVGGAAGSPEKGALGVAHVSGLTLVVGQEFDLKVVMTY
T4 sequence (Q42656 16-378): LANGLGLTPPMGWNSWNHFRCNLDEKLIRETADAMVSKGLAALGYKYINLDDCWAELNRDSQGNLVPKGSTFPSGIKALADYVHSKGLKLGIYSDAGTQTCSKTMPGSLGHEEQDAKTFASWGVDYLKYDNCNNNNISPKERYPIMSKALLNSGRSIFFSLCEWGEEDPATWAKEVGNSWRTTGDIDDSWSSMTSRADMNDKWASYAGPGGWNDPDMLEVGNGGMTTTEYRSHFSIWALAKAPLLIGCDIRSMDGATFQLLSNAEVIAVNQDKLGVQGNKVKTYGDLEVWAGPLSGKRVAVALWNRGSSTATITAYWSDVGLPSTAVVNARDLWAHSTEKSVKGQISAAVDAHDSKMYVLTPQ

OC[C@H]1NC[C@H](O)[C@@H](O)[C@@H]1O [Compound 193, 1-deoxynojirimycin, reference compound]
% inhibition N-acetyl-β-gluc [1]: 0%
% inhibition α-fucosidase (α-L-fucosidase): 0%
% inhibition Naringinase (Naringinase): 0%
% inhibition α-mannosidase (α-D-mannosidase): 0%
% inhibition α-gluc (yeast) (α-D-glucosidase [2]): 35%
% inhibition α-galactosidase (α-D-galactosidase): 0%
% inhibition α-gluc (rice) (α-D-glucosidase [3]): 100%
% inhibition α-gluc (Bacillus) (α-D-glucosidase [4]): 100%
% inhibition β-glucosidase (β-D-glucosidase): 64%
% inhibition β-galactosidase (β-D-galactosidase): 0%

CCCCCCCCCN1C[C@H](O)[C@H](O)[C@H]1CNC(C)=O [Compound 512, N-(((2R,3R,4S)-3,4-dihydroxy-1-nonylpyrrolidin-2-yl)methyl)acetamide]
Ave % inhibition (HCV): +++ (+++: 40-59%)

OCCCCCCCCCN1[C@H](CO)[C@@H](O)[C@H](O)[C@H]1CO [Compound 557, (2R,3R,4R,5R)-2,5-bis(hydroxymethyl)-1-(9-hydroxynonyl)pyrrolidine-3,4-diol]
Ave % inhibition (HCV): ++ (++: 20-39%)

CC1(C)O[C@H]2[C@H](CN(Cc3ccc(-c4ccccc4)cc3)[C@H]2CNC(=O)C(F)(F)F)O1 [Compound 632, N-(((3aR,4S,6aS)-5-(biphenyl-4-ylmethyl)-2,2-dimethyltetrahydro-3aH-[1,3]dioxolo[4,5-c]pyrrol-4-yl)methyl)-2,2,2-trifluoroacetamide]
Ave % inhibition (HCV): ++ (++: 20-39%)

OC[C@H]1[C@H](O)[C@@H](O)CN1Cc1ccccc1 [Compound 500, (2S,3S,4S)-1-benzyl-2-(hydroxymethyl)pyrrolidine-3,4-diol]
Ave % inhibition (HCV): ++ (++: 20-39%)

CCCCCCCCCN1C[C@@H](O)[C@@H](O)[C@H](O)[C@H](O)C1 [Compound 794, (3R,4R,5R,6R)-1-nonylazepane-3,4,5,6-tetraol]
Ave % inhibition (HCV): ++++ (++++: 60-79%)

OCCN1C[C@@H](O)[C@@H](O)[C@H]1[C@H](O)CO [Compound 145, (2R,3S,4R)-2-((S)-1,2-dihydroxyethyl)-1-(2-hydroxyethyl)pyrrolidine-3,4-diol]
Ave % inhibition (HCV): +++ (+++: 40-59%)

CC[C@@H]1NC[C@@H](O)[C@H](O)[C@H]1O [Compound 72, (2S,3S,4S,5R)-2-ethylpiperidine-3,4,5-triol]
Ave % inhibition (HCV): ++ (++: 20-39%)

OC1CN(Cc2ccc(-c3ccccc3)cc2)C1 [Compound 748, 1-(biphenyl-4-ylmethyl)azetidin-3-ol]
Ave % inhibition (HCV): ++++ (++++: 60-79%)

CCCCCCCCCN1C[C@@H](O)[C@@H](O)[C@@H]1[C@H](O)CO [Compound 427, (2S,3S,4R)-2-((S)-1,2-dihydroxyethyl)-1-nonylpyrrolidine-3,4-diol]
Ave % inhibition (HCV): +++ (+++: 40-59%)

From patent US20110195929A1, “COMPOUNDS FOR THE TREATMENT OF FLAVIVIRAL INFECTIONS” (SUMMIT CORPORATION PLC, priority 2008, published 2011)
